Test systems include EKVX NSCLC; HCT-116 colon; HL-60(TB) leukemia; HOP-62 NSCLC; K-562 leukemia; LOX IMVI melanoma; SF-268 CNS; TK-10 renal; UACC-257 melanoma; HS 578T breast.
Common to all, as to test: NCI anticancer screen, dose series, 48 h

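Grown in 96-well plates, cells were treated for 48 hours with each compound at five concentrations. Insufficient inhibition: endpoint recorded as highest concentration tested. Here, GI50 denotes the concentration required for 50% inhibition of growth. TGI: concentration producing complete growth inhibition.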 Bounds are passed on as bounds.

Turning to `Cc1nc(Nc2ccc(Cl)cc2)sc1C(=O)NNc1ccc([N+](=O)[O-])cc1[N+](=O)[O-]`, the TGI turned out to be 32.6 µM with EKVX NSCLC; 26.7 µM in the experiment with HCT-116 colon; 43.5 µM in the experiment on HL-60(TB) leukemia; 25.2 µM in the experiment with HOP-62 NSCLC; 46.1 µM in the experiment with K-562 leukemia; 35.7 µM in the experiment on LOX IMVI melanoma. The values for the TGI in the experiment on SF-268 CNS, with TK-10 renal and in the experiment on UACC-257 melanoma were 38.8 µM, 37.2 µM and 31.3 µM, respectively.

On to `c1cc(N(CCn2cccn2)CCn2cccn2)cc(N(CCn2cccn2)CCn2cccn2)c1`, for which the TGI in the experiment with EKVX NSCLC, in the experiment with HCT-116 colon, in the experiment on HL-60(TB) leukemia, in the experiment on HOP-62 NSCLC, in the experiment with K-562 leukemia and with LOX IMVI melanoma was more than 100 µM each time. Also, the TGI in the experiment with SF-268 CNS, in the experiment on TK-10 renal and in the experiment on UACC-257 melanoma was more than 100 µM throughout.

Take `CCOC(=O)C1N(S(=O)(=O)c2ccc(C)cc2)CCC12c1ccccc1N(C(C)=O)C2c1ccc(OC)c(OC)c1` (centres undefined): the TGI in the experiment on EKVX NSCLC, in the experiment on HCT-116 colon, in the experiment on HL-60(TB) leukemia, with HOP-62 NSCLC, with K-562 leukemia and in the experiment on LOX IMVI melanoma was more than 100 µM throughout. Moreover, the TGI with SF-268 CNS, in the experiment on TK-10 renal and with UACC-257 melanoma was more than 100 µM throughout.

Take `CN(C)CCCNC(=O)c1cc(NC(=O)c2cc(NC(=O)CCc3c[nH]c4ccccc34)cn2C)cn1C`: the GI50 in the experiment on EKVX NSCLC, with HL-60(TB) leukemia, in the experiment with HS 578T breast, in the experiment on K-562 leukemia, with LOX IMVI melanoma and with SF-268 CNS was more than 100 µM throughout. In addition, the GI50 with TK-10 renal and in the experiment on UACC-257 melanoma was more than 100 µM in each case. Besides, the TGI with EKVX NSCLC, with HL-60(TB) leukemia, in the experiment on HS 578T breast, with K-562 leukemia, in the experiment with LOX IMVI melanoma and in the experiment with SF-268 CNS was more than 100 µM each time. Besides, the TGI with TK-10 renal and with UACC-257 melanoma was more than 100 µM throughout.

For `CC(=O)[CH-]C(C)=O.CC(=O)[CH-]C(C)=O.[CH2-]CCC.[CH2-]CCC.[Sn+4]`, the GI50 in the experiment with EKVX NSCLC is 0.901 µM; in the experiment on HCT-116 colon it was 0.65 µM; in the experiment on HL-60(TB) leukemia, 0.347 µM; in the experiment on HOP-62 NSCLC it was 2.02 µM; in the experiment with K-562 leukemia it was 0.283 µM; in the experiment on LOX IMVI melanoma, 0.174 µM. Moreover, the results for the GI50 with SF-268 CNS, in the experiment on TK-10 renal and in the experiment on UACC-257 melanoma were 0.291 µM, 0.423 µM and 0.376 µM, respectively. In addition, the TGI with EKVX NSCLC was 2.27 µM; with HCT-116 colon, 1.96 µM; in the experiment on HL-60(TB) leukemia it was 2.73 µM; in the experiment on HOP-62 NSCLC, 3.56 µM; in the experiment on K-562 leukemia it was more than 100 µM; with LOX IMVI melanoma, 0.464 µM. Also, the TGI came out at 1.2 µM with SF-268 CNS, 1.36 µM in the experiment on TK-10 renal and 1.68 µM in the experiment with UACC-257 melanoma.

As to `OCc1ccc(-c2ccc(-c3ccc(CO)o3)[se]2)o1`, the GI50 in the experiment with HCT-116 colon was 69.4 µM; in the experiment on HL-60(TB) leukemia it was 39.7 µM; in the experiment with HOP-62 NSCLC, more than 80.4 µM; in the experiment on HS 578T breast, more than 79 µM; with K-562 leukemia, 38.1 µM; in the experiment on LOX IMVI melanoma, more than 91.9 µM. Besides, the GI50 is more than 100 µM in the experiment on SF-268 CNS, more than 100 µM with TK-10 renal and 1.49 µM with UACC-257 melanoma. In addition, the TGI with HCT-116 colon, in the experiment on HL-60(TB) leukemia, in the experiment on HOP-62 NSCLC, in the experiment on HS 578T breast, in the experiment with K-562 leukemia and in the experiment with LOX IMVI melanoma was more than 100 µM each time. In addition, the TGI in the experiment on SF-268 CNS is more than 100 µM; with TK-10 renal, more than 100 µM; in the experiment on UACC-257 melanoma it was more than 20.8 µM.

As to `Nc1ccc(C2=NN(c3ccccc3)C(c3ccc(Cl)cc3)C2)cc1` (centres undefined), the GI50 was 1.64 µM in the experiment with HCT-116 colon; 3.71 µM in the experiment with HL-60(TB) leukemia; 2.01 µM in the experiment on HOP-62 NSCLC; 5.7 µM in the experiment on HS 578T breast; 1.66 µM with LOX IMVI melanoma; 4.22 µM with SF-268 CNS. The GI50 is 2.13 µM in the experiment with TK-10 renal and 3.13 µM with UACC-257 melanoma. Besides, the TGI worked out at 3.01 µM in the experiment with HCT-116 colon; 22.8 µM with HL-60(TB) leukemia; 5.05 µM with HOP-62 NSCLC; 50.5 µM in the experiment with HS 578T breast; 3.05 µM with LOX IMVI melanoma; 19.8 µM with SF-268 CNS. In addition, the TGI was 6.16 µM with TK-10 renal and 11.2 µM with UACC-257 melanoma.

Regarding `COc1ccc(-c2cn[nH]c2-c2cc(OC)c3c(c2)OCO3)cc1`, the GI50 in the experiment on HCT-116 colon is 0.277 µM; in the experiment on HL-60(TB) leukemia, 0.22 µM; in the experiment with HOP-62 NSCLC it was 0.309 µM; in the experiment on HS 578T breast it was 0.311 µM; in the experiment with K-562 leukemia, 0.0467 µM; in the experiment on LOX IMVI melanoma it was 0.599 µM. In addition, the GI50 with SF-268 CNS is 0.854 µM; in the experiment with TK-10 renal, 1.51 µM. In addition, the TGI is 11.7 µM in the experiment on HCT-116 colon; 0.771 µM in the experiment with HL-60(TB) leukemia; 24.1 µM in the experiment with HOP-62 NSCLC; 26.2 µM with HS 578T breast; more than 66.2 µM with K-562 leukemia; 19.2 µM with LOX IMVI melanoma. Further, the TGI worked out at 31 µM in the experiment on SF-268 CNS and 63.3 µM with TK-10 renal.

Turning to `Fc1ccc2[nH]cc(-c3nonc3-c3c[nH]c4ccc(Br)cc34)c2c1`, the GI50 with EKVX NSCLC is 1.88 µM; in the experiment with HCT-116 colon it was 1.84 µM; in the experiment with HL-60(TB) leukemia, 2.94 µM; in the experiment on HOP-62 NSCLC, 1.89 µM; in the experiment on HS 578T breast it was 2.27 µM; with K-562 leukemia it was 2.22 µM. Further, the GI50 in the experiment on SF-268 CNS is 3.01 µM; in the experiment on TK-10 renal it was 3.04 µM; in the experiment with UACC-257 melanoma, 4.17 µM. For the same compound, the TGI in the experiment on EKVX NSCLC came out at 6.01 µM; in the experiment on HCT-116 colon, 4.23 µM; with HL-60(TB) leukemia, 11.6 µM; with HOP-62 NSCLC, 5.07 µM; in the experiment with HS 578T breast, 5.96 µM; in the experiment on K-562 leukemia it was 7.38 µM. In addition, the TGI is 12.4 µM with SF-268 CNS, 6.63 µM in the experiment on TK-10 renal and 13.8 µM in the experiment on UACC-257 melanoma.

For the origin of these results see PubChem BioAssay (NCI).
